This note sets out measurements from patent US20100222269A1, “IMPROVED DERIVATIVES OF AMYLIN” (priority 2007, published 2010).

Starred links: 1 amine or outer side, 2 acyl side, 3 side chain; linkers in the order of their positions; H or OH if unused. Positions of bridges follow the written chain, without caps; N, C: chain ends. Residues, ends and D or L forms follow the SMILES beside them. Groups on a side chain read outwards from the residue. *: point of attachment. C20 diacid = O=C(O)CCCCCCCCCCCCCCCCCCC(=O)*; C18 diacid = O=C(O)CCCCCCCCCCCCCCCCC(=O)*; γGlu = O=C(O)[C@H](CCC(=O)[*:2])N[*:1]; AEEA = NCCOCCOCC(=O)O

The target of this test is T1, Amylin 3(a) receptor (human calcitonin receptor (CTa) with RAMP-3) (Homo sapiens, UniProt O60896+P30988).
T1 construct: expressed in transfected cells; host or cells: BHK570 (baby hamster kidney) cells, stably transfected, with CRE-luciferase reporter
The experiment in a line: Amylin luciferase assay (CRE-luciferase reporter in BHK Amylin 3(a)//CRE-luc cells). The test is classed as cell-based. To be noted: BHK570 cells with human calcitonin receptor (CTa), RAMP-3 and CRE-luciferase reporter; 4 hours incubation; read-out: Potency luciferase assay. The text has this:
It has previously been published (Poyner D R et al 2002, Pharmacological Reviews 54(2) 233-246) that activation of Amylin receptors (coexpression of Calcitonin receptor and receptor activity modifying peptides RAMPs) by Amylin leads to an increase in the intracellular concentration of cAMP. Consequently, transcription is activated at promotors containing multiple copies of the cAMP response element (CRE). It is thus possible to measure Amylin activity by use of a CRE luciferase reporter gene introduced into BHK cells also expressing an Amylin receptor.
2. Construction of an Amylin 3(a)/CRE-luc Cell Line
A BHK570 cell line stably transfected with the human calcitonin receptor (CTa) and a CRE-responsive luciferase reportergene. The cell line was further transfected with RAMP-3, using standard methods. This turns the Calcitonin receptor into an Amylin 3(a) receptor. Methotrexate, Neomycin, and Hygromycin are selection markers for luciferase, the Calcitonin receptor, and RAMP-3, respectively.
3. Amylin Luciferase Assay
To perform activity assays, BHK Amylin 3(a)//CRE-luc cells were seeded in white 96 well culture plates at a density of about 20.000 cells/well. The cells were in 100 μl growth medium (DMEM with 10% FBS, 1% Pen/Strep, 1 mM Na-pyruvate, 250 nM Methotrexate, 500 μg/ml Neomycin, and 400 μg/ml Hygromycin). After incubation overnight at 37° C. and 5% CO2, the growth medium was replaced by 50 μl/well assay medium (DMEM (without phenol red), Glumamax™, 10% FBS, and 10 mM Hepes, pH 7,4). Further, 50 μl/well of standard or sample in assay buffer were added. After 4 hours incubation at 37° C. and 5% CO2, the assay medium with standard or sample were removed and replaced by 100 μl/well PBS. Further, 100 μl/well LucLite™ was added. The plates were sealed and incubated at room temperature for 30 minutes. Finally, luminescence was measured on a TopCounter (Packard) in SPC (single photon counting) mode.
Background: A reporter such as luciferase makes a cellular process visible.

T1 sequence (O60896 24-148): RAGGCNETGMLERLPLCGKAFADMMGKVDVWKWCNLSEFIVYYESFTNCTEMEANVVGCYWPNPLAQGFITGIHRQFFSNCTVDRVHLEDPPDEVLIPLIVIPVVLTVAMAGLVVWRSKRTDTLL
T1 sequence (P30988 25-474): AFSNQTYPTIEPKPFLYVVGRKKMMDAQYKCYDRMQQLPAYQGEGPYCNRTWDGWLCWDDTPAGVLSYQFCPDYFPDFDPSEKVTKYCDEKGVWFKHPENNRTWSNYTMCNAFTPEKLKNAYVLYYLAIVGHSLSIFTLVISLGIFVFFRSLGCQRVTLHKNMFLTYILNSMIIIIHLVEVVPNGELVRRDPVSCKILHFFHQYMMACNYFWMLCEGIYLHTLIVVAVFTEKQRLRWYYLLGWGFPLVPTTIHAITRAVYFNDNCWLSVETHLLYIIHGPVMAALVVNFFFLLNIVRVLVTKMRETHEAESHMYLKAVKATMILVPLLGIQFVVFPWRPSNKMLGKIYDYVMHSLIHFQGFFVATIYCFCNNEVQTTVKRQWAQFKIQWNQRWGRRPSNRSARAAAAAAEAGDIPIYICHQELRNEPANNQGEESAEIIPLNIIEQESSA

As to `CC[C@H](C)[C@H](NC(=O)[C@@H]1CCCN1C(=O)CNC(=O)[C@H](Cc1ccccc1)NC(=O)[C@H](CC(N)=O)NC(=O)[C@H](CC(N)=O)NC(=O)[C@H](CO)NC(=O)[C@H](CO)NC(=O)[C@H](Cc1c[nH]cn1)NC(=O)[C@@H](NC(=O)[C@H](CC(C)C)NC(=O)[C@H](Cc1ccccc1)NC(=O)[C@H](CC(N)=O)NC(=O)[C@H](C)NC(=O)[C@H](CC(C)C)NC(=O)[C@H](CCCNC(=N)N)NC(=O)[C@H](CCC(N)=O)NC(=O)[C@@H](NC(=O)[C@H](C)NC(=O)[C@@H]1CSSC[C@H](NC(=O)[C@@H](N)CCCCN)C(=O)N[C@@H](CCCCNC(=O)COCCOCCNC(=O)COCCOCCNC(=O)CCCCCCCCCCCCCCCCCCC(=O)O)C(=O)N[C@@H]([C@@H](C)O)C(=O)N[C@@H](C)C(=O)N[C@@H]([C@@H](C)O)C(=O)N1)[C@@H](C)O)C(C)C)C(=O)N[C@@H](CC(C)C)C(=O)N1CCC[C@H]1C(=O)N1CCC[C@H]1C(=O)N[C@H](C(=O)N[C@@H](CC(N)=O)C(=O)N[C@H](C(=O)NCC(=O)N[C@@H](CO)C(=O)N[C@@H](CC(N)=O)C(=O)N[C@H](C(=O)N[C@@H](Cc1ccc(O)cc1)C(N)=O)[C@@H](C)O)C(C)C)[C@@H](C)O` [Example 13, N-epsilon3-(2-{2-[2-(2-{2-[2-(19-carboxynonadecanoylamino)ethoxy]ethoxy}acetylamino)ethoxy]ethoxy}acetyl)-[Lys3]-pramlintide (1-37)] (H-KCK([AEEA-AEEA-C20 diacid])TATCATQRLANFLVHSSNNFGPILPPTNVGSNTY-NH2; disulfide 2-7; N-terminus assumed), the EC50 was found to be 0.06 nM.

For `CC[C@H](C)[C@H](NC(=O)[C@@H]1CCCN1C(=O)CNC(=O)[C@H](Cc1ccccc1)NC(=O)[C@H](CC(N)=O)NC(=O)[C@H](CC(N)=O)NC(=O)[C@H](CO)NC(=O)[C@H](CO)NC(=O)[C@H](Cc1c[nH]cn1)NC(=O)[C@@H](NC(=O)[C@H](CC(C)C)NC(=O)[C@H](Cc1ccccc1)NC(=O)[C@H](CC(N)=O)NC(=O)[C@H](C)NC(=O)[C@H](CC(C)C)NC(=O)[C@H](CCCNC(=N)N)NC(=O)[C@H](CCC(N)=O)NC(=O)[C@@H](NC(=O)[C@H](C)NC(=O)[C@@H]1CSSC[C@H](NC(=O)[C@@H](N)CCCCN)C(=O)N[C@@H](CCCCNC(=O)CCCCCCCCCCCCCCCCCCC(=O)O)C(=O)N[C@@H]([C@@H](C)O)C(=O)N[C@@H](C)C(=O)N[C@@H]([C@@H](C)O)C(=O)N1)[C@@H](C)O)C(C)C)C(=O)N[C@@H](CC(C)C)C(=O)N1CCC[C@H]1C(=O)N1CCC[C@H]1C(=O)N[C@H](C(=O)N[C@@H](CC(N)=O)C(=O)N[C@H](C(=O)NCC(=O)N[C@@H](CO)C(=O)N[C@@H](CC(N)=O)C(=O)N[C@H](C(=O)N[C@@H](Cc1ccc(O)cc1)C(N)=O)[C@@H](C)O)C(C)C)[C@@H](C)O` [Example 14, N-epsilon3-(19-carboxynonadecanoyl)-[Lys3]-pramlintide (1-37)] (H-KCK(C20 diacid)TATCATQRLANFLVHSSNNFGPILPPTNVGSNTY-NH2; disulfide 2-7; N-terminus assumed), the EC50 came out at 0.05 nM.

As for `CC(C)C[C@H](NC(=O)[C@H](CC(N)=O)NC(=O)[C@H](CC(N)=O)NC(=O)[C@H](CO)NC(=O)[C@H](CO)NC(=O)[C@H](CCCNC(=N)N)NC(=O)[C@@H](NC(=O)[C@H](CC(C)C)NC(=O)[C@H](Cc1ccccc1)NC(=O)[C@H](CC(N)=O)NC(=O)[C@H](C)NC(=O)[C@H](CC(C)C)NC(=O)[C@H](CCCNC(=N)N)NC(=O)[C@H](CCC(N)=O)NC(=O)[C@@H](NC(=O)[C@H](C)NC(=O)[C@@H]1CSSC[C@H](NC(=O)CC[C@H](NC(=O)CCCCCCCCCCCCCCCCC(=O)O)C(=O)O)C(=O)N[C@@H](CC(N)=O)C(=O)N[C@@H]([C@@H](C)O)C(=O)N[C@@H](C)C(=O)N[C@@H]([C@@H](C)O)C(=O)N1)[C@@H](C)O)C(C)C)C(=O)NCC(=O)N1CCC[C@H]1C(=O)N[C@H](C(=O)N[C@@H](CC(C)C)C(=O)N1CCC[C@H]1C(=O)N1CCC[C@H]1C(=O)N[C@H](C(=O)N[C@@H](CC(N)=O)C(=O)N[C@H](C(=O)NCC(=O)N[C@@H](CO)C(=O)N[C@@H](CC(N)=O)C(=O)N[C@H](C(=O)N[C@@H](Cc1ccc(O)cc1)C(N)=O)[C@@H](C)O)C(C)C)[C@@H](C)O)C(C)C` [Example 16, N-alpha-[(S)-4-carboxy-4-(17-carboxyheptadecanoylamino)butyryl]-[Arg18,Leu23,Val26]-pramlintide (2-37)], the EC50 turned out to be 0.03 nM.

For the compound `CC[C@H](C)[C@H](NC(=O)[C@@H]1CCCN1C(=O)CNC(=O)[C@H](Cc1ccccc1)NC(=O)[C@H](CC(N)=O)NC(=O)[C@H](CC(N)=O)NC(=O)[C@H](CO)NC(=O)[C@H](CO)NC(=O)[C@H](CCCNC(=N)N)NC(=O)[C@H](C)NC(=O)[C@H](CC(C)C)NC(=O)[C@H](Cc1ccccc1)NC(=O)[C@H](CC(N)=O)NC(=O)[C@H](C)NC(=O)[C@H](CC(C)C)NC(=O)[C@H](CCCNC(=N)N)NC(=O)[C@H](CCC(N)=O)NC(=O)[C@@H](NC(=O)[C@H](C)NC(=O)[C@@H]1CSSC[C@H](NC(=O)[C@@H](N)CCCCNC(=O)CC[C@H](NC(=O)CCCCCCCCCCCCCCCCC(=O)O)C(=O)O)C(=O)NCC(=O)N[C@@H]([C@@H](C)O)C(=O)N[C@@H](C)C(=O)N[C@@H]([C@@H](C)O)C(=O)N1)[C@@H](C)O)C(=O)N[C@@H](CC(C)C)C(=O)N[C@@H](CO)C(=O)N1CCC[C@H]1C(=O)N[C@H](C(=O)N[C@@H](CC(N)=O)C(=O)N[C@H](C(=O)NCC(=O)N[C@@H](CO)C(=O)N[C@@H](CC(N)=O)C(=O)N[C@H](C(=O)N[C@@H](Cc1ccc(O)cc1)C(N)=O)[C@@H](C)O)C(C)C)[C@@H](C)O` [Example 23, N-epsilon1-[(S)-4-carboxy-4-(17-carboxyheptadecanoylamino)butyryl]-[Gly3,Ala17,Arg18,Ser28]-pramlintide (1-37)] (H-K([γGlu-C18 diacid])CGTATCATQRLANFLARSSNNFGPILSPTNVGSNTY-NH2; disulfide 2-7), the EC50 stood at 0.07 nM.

In the case of `CC[C@H](C)[C@H](NC(=O)[C@@H]1CCCN1C(=O)CNC(=O)[C@H](Cc1ccccc1)NC(=O)[C@H](CC(N)=O)NC(=O)[C@H](CC(N)=O)NC(=O)[C@H](CO)NC(=O)[C@H](CO)NC(=O)[C@H](Cc1c[nH]cn1)NC(=O)[C@@H](NC(=O)[C@H](CC(C)C)NC(=O)[C@H](Cc1ccccc1)NC(=O)[C@H](CC(N)=O)NC(=O)[C@H](C)NC(=O)[C@H](CC(C)C)NC(=O)[C@H](CCCNC(=N)N)NC(=O)[C@H](CCC(N)=O)NC(=O)[C@@H](NC(=O)[C@H](C)NC(=O)[C@@H]1CSSC[C@H](NC(=O)[C@H](CCC(=O)O)NC(=O)[C@H](CCCNC(=N)N)NC(=O)[C@H](CCC(=O)O)NC(=O)[C@H](CCC(=O)O)NC(=O)CCCCCCCCCCCCCCCCCCC(=O)O)C(=O)N[C@@H](CC(N)=O)C(=O)N[C@@H]([C@@H](C)O)C(=O)N[C@@H](C)C(=O)N[C@@H]([C@@H](C)O)C(=O)N1)[C@@H](C)O)C(C)C)C(=O)N[C@@H](CC(C)C)C(=O)N1CCC[C@H]1C(=O)N1CCC[C@H]1C(=O)N[C@H](C(=O)N[C@@H](CC(N)=O)C(=O)N[C@H](C(=O)NCC(=O)N[C@@H](CO)C(=O)N[C@@H](CC(N)=O)C(=O)N[C@H](C(=O)N[C@@H](Cc1ccc(O)cc1)C(N)=O)[C@@H](C)O)C(C)C)[C@@H](C)O` [Example 25, N-alpha-(19-carboxynonadecanoyl)-Glu-Glu-Arg-[Glu1]-pramlintide (1-37)] ({C20 diacid}-EERECNTATCATQRLANFLVHSSNNFGPILPPTNVGSNTY-NH2; disulfide 5-10; C-terminus assumed), the EC50 was 0.08 nM.
